Data as given in PubChem BioAssay AID328 (DTP/NCI, 2004).
Where “and” joins values, the source holds several entries; their conditions need not be identical. Equal entries are not always repeated. Toxic doses and inconclusive results are not listed. The calls were made as follows: active = survival T/C of 150% or more; inactive = T/C below 125% in these data.

Tested on: BDF1 mice, P388 leukemia ip, median survival T/C
Assay: NCI In Vivo Anticancer Drug Screen. Data for tumor model P388 Leukemia (intraperitoneal) in B6D2F1 (BDF1) mice
Conditions: endpoint: median survival time, higher = longer survival
How it was run: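 Mice carrying the transplantable tumour receive compound or vehicle. Survival is followed in each arm, and the treated measure is divided by the vehicle measure.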

[1] = dose: 400.0 mg/kg/injection, schedule: Q04DX003 (ip), vehicle: saline
[2] = dose: 600.0 mg/kg/injection, schedule: Q04DX003 (ip), vehicle: saline with Tween-80
[3] = dose: 100.0 mg/kg/injection, schedule: Q01DX001 (ip), vehicle: saline with Tween-80
[4] = dose: 25.0 mg/kg/injection, schedule: Q01DX009 (ip), vehicle: Klucel (hydroxypropylcellulose) (HPC)
[5] = dose: 50.0 mg/kg/injection, schedule: Q01DX009 (ip), vehicle: Klucel (hydroxypropylcellulose) (HPC)
[6] = dose: 25.0 mg/kg/injection, schedule: Q01DX009 (ip), vehicle: saline with Tween-80
[7] = dose: 50.0 mg/kg/injection, schedule: Q01DX009 (ip), vehicle: saline with Tween-80
[8] = dose: 12.5 mg/kg/injection, schedule: Q01DX009 (ip), vehicle: Klucel (hydroxypropylcellulose) (HPC)
[9] = dose: 25.0 mg/kg/injection, schedule: Q04DX003 (ip), vehicle: Klucel (hydroxypropylcellulose) (HPC)
[10] = dose: 50.0 mg/kg/injection, schedule: Q04DX003 (ip), vehicle: Klucel (hydroxypropylcellulose) (HPC)
[11] = dose: 400.0 mg/kg/injection, schedule: Q01DX009 (ip), vehicle: saline
[12] = dose: 50.0 mg/kg/injection, schedule: Q01DX009 (ip), vehicle: saline
[13] = dose: 100.0 mg/kg/injection, schedule: Q04DX003 (ip), vehicle: saline
[14] = dose: 200.0 mg/kg/injection, schedule: Q04DX003 (ip), vehicle: saline

Measured: T/C

N=c1ccn2c(n1)OC1C(OP(=O)(O)O)C(CO)OC12 (stereo not drawn)
active: dose: 118.0 mg/kg/injection, schedule: Q04DX003 (ip), vehicle: saline 159 % of control | dose: 177.0 mg/kg/injection, schedule: Q04DX003 (ip), vehicle: saline 172 % of control and 185 % of control | dose: 266.0 mg/kg/injection, schedule: Q04DX003 (ip), vehicle: saline with Tween-80 172 % of control | dose: 266.0 mg/kg/injection, schedule: Q04DX003 (ip), vehicle: saline 205 % of control | dose: 400.0 mg/kg/injection, schedule: Q04DX003 (ip), vehicle: saline with Tween-80 181 % of control | [1] 200 % of control | [2] 200 % of control | dose: 600.0 mg/kg/injection, schedule: Q04DX003 (ip), vehicle: saline 230 % of control
inactive: dose: 52.0 mg/kg/injection, schedule: Q04DX003 (ip), vehicle: saline 109 % of control

O=c1c(N=Nc2ccccc2)c(O)n(-c2ccccc2)c(=S)n1-c1ccccc1
inactive: dose: 25.0 mg/kg/injection, schedule: Q01DX001 (ip), vehicle: saline with Tween-80 100 % of control | dose: 50.0 mg/kg/injection, schedule: Q01DX001 (ip), vehicle: saline with Tween-80 90 % of control | [3] 95 % of control

O=C(/C(=C\c1ccccc1)CN1CCOCC1)c1ccc(Br)cc1
inactive: [4] 104 % of control | dose: 37.5 mg/kg/injection, schedule: Q04DX003 (ip), vehicle: Klucel (hydroxypropylcellulose) (HPC) 108 % of control | [5] 108 % of control | dose: 75.0 mg/kg/injection, schedule: Q04DX003 (ip), vehicle: Klucel (hydroxypropylcellulose) (HPC) 104 % of control | dose: 150.0 mg/kg/injection, schedule: Q04DX003 (ip), vehicle: Klucel (hydroxypropylcellulose) (HPC) 108 % of control

O=[N+]([O-])c1ccc(S(=O)(=O)c2ccccc2)c2nonc12
inactive: [6] 107 % of control | [7] 98 % of control

Cc1ncc(-c2ccc([N+](=O)[O-])cc2)o1
inactive: [8] 87 % of control | dose: 12.5 mg/kg/injection, schedule: Q04DX003 (ip), vehicle: Klucel (hydroxypropylcellulose) (HPC) 96 % of control | [4] 91 % of control | [9] 92 % of control | [5] 91 % of control | [10] 103 % of control | dose: 200.0 mg/kg/injection, schedule: Q04DX003 (ip), vehicle: Klucel (hydroxypropylcellulose) (HPC) 92 % of control

CN1CCN(CCOC(=O)N2c3ccccc3Sc3ccccc32)CC1
inactive: [8] 100 % of control | [4] 105 % of control | [5] 100 % of control

O=c1[nH][nH]c(=O)n1O
inactive: dose: 200.0 mg/kg/injection, schedule: Q01DX009 (ip), vehicle: saline 100 % of control | [11] 95 % of control

CCSc1ccc2c(c1)N(CCCN1CCN(C)CC1)c1ccccc1S2
inactive: dose: 15.0 mg/kg/injection, schedule: Q04DX003 (ip), vehicle: saline 110 % of control | [6] 112 % of control | dose: 25.0 mg/kg/injection, schedule: Q01DX009 (ip), vehicle: saline 92 % of control | dose: 30.0 mg/kg/injection, schedule: Q04DX003 (ip), vehicle: saline 120 % of control | [7] 91 % of control | [12] 103 % of control | [13] 90 % of control | dose: 120.0 mg/kg/injection, schedule: Q04DX003 (ip), vehicle: saline 105 % of control
active: [14] 150 % of control

Cn1c(O)c(C=N)c(=O)[nH]c1=O
inactive: dose: 100.0 mg/kg/injection, schedule: Q01DX009 (ip), vehicle: saline 100 % of control | [13] 100 % of control | [14] 92 % of control | [11] 109 % of control | [1] 107 % of control

Cc1cccc(/C=N/Nc2ccccn2)n1
inactive: dose: 50.0 mg/kg/injection, schedule: Q01DX005 (ip), vehicle: saline with Tween-80 108 % of control | dose: 100.0 mg/kg/injection, schedule: Q01DX005 (ip), vehicle: saline with Tween-80 118 % of control

c1cc(OCC2CO2)ccc1OCC1CO1 (stereo not drawn)
inactive: dose: 78.0 mg/kg/injection, schedule: Q04DX003 (ip), vehicle: saline with Tween-80 119 % of control | [2] 122 % of control
active: dose: 177.0 mg/kg/injection, schedule: Q04DX003 (ip), vehicle: saline with Tween-80 153 % of control

CC(NC(=O)c1ccc(Cl)cc1Cl)c1ccccc1 (stereo not drawn)
inactive: dose: 100.0 mg/kg/injection, schedule: Q01DX001 (ip), vehicle: other 100 % of control | dose: 400.0 mg/kg/injection, schedule: Q01DX001 (ip), vehicle: other 95 % of control

COC(=O)Cc1[nH]ccc1C(=O)OC
inactive: [3] 103 % of control | dose: 200.0 mg/kg/injection, schedule: Q01DX001 (ip), vehicle: saline with Tween-80 109 % of control | dose: 400.0 mg/kg/injection, schedule: Q01DX001 (ip), vehicle: saline with Tween-80 120 % of control

Cc1cnc(=S)n(-c2ccccc2)c1
inactive: dose: 12.5 mg/kg/injection, schedule: Q04DX003 (ip), vehicle: saline with Tween-80 95 % of control | dose: 25.0 mg/kg/injection, schedule: Q04DX003 (ip), vehicle: saline with Tween-80 104 % of control | dose: 50.0 mg/kg/injection, schedule: Q04DX003 (ip), vehicle: saline with Tween-80 98 % of control

O=C(/C(=C/c1ccccc1)CN1CCOCC1)c1ccccc1
inactive: [9] 91 % of control | [10] 95 % of control | dose: 100.0 mg/kg/injection, schedule: Q04DX003 (ip), vehicle: Klucel (hydroxypropylcellulose) (HPC) 91 % of control

CC1C[N-]CC(C)C1.CC1C[N-]CC(C)C1.[Cl][Pt+2]([Cl])([Cl])[Cl] (stereo not drawn)
inactive: dose: 1.56 mg/kg/injection, schedule: Q01DX009 (ip), vehicle: saline 95 % of control | dose: 3.12 mg/kg/injection, schedule: Q01DX009 (ip), vehicle: saline 114 % of control | dose: 6.25 mg/kg/injection, schedule: Q01DX009 (ip), vehicle: saline 93 % of control | dose: 12.5 mg/kg/injection, schedule: Q01DX009 (ip), vehicle: saline 114 % of control | [12] 107 % of control

CC(Br)C(=O)c1ccc(OCc2ccccc2)cc1 (stereo not drawn)
inactive: [7] 117 % of control | dose: 100.0 mg/kg/injection, schedule: Q01DX009 (ip), vehicle: saline with Tween-80 119 % of control
